In paper PMC5529531, “Engineered isopeptide bond stabilized fibrin inspired nanoscale peptide based sealants for efficient blood clotting” (Scientific Reports, 2017):
Where “and” joins values, the source holds several entries; their conditions need not be identical. Equal values may be shown once.

Tested on: platelet-free plasma
Test: Thrombin clotting time experiment with platelet-free plasma
Conditions: 0.35 mL chicken platelet-free plasma at 37 °C + 0.15 mL sealant solution (peptide 1.5 mM in 25 mM PBS pH 7.4, 5 mM CaCl2, 10 µL TG 7 U/mL) or thrombin-calcium reagent; mean ± SD of two independent experiments
Method: Plasma was collected by centrifuging whole non-coagulated chicken blood (4500 rpm, 10 min, 4 °C). Thrombin clotting time (Figure S19) experiment was performed by incubating 0.35 mL platelet-free plasma, in a 1.5 mL microcentrifuge tube at 37 °C for 10 min, followed by the addition of the thrombin-calcium reagent, 0.15 mL, maintained at room temperature. The period of clot formation was noted. The same batch of platelet-free plasma was used to determine sealant clotting time. Platelet-free plasma 0.35 mL, was taken in a 1.5 mL microcentrifuge tube incubated at 37 °C followed by addition of 0.15 mL sealant solution. Sealant was prepared by dissolving each peptide in 25 mM PBS buffer, pH 7.4 with 5 mM CaCl2 where final conc. of the peptide was 1.5 mM followed by the addition of 10 µL TG (7 U/1 mL) soln. The period of clot formation was noted. The results are represented as mean ± SD of two independent experiments.
Figure S19. Determination of clotting time of sealants with plasma by thrombin clotting time method. The clotting time in presence of thrombin, sealants 1, 2 and 3 are 32±2, 35±1, 25±1 and 28±2 secs, respectively.

Substance: thrombin: thrombin (bovine plasma), used as thrombin-calcium reagent
- clotting time (thrombin clotting time experiment): 32±2 secs and ~ 32 ± 2 secs
